Assay results reported in US20130310374A1, “Substituted Imidazoquinoline Derivatives” (PIRAMAL ENTERPRISES LIMITED`, priority 2010, published 2013).

What was measured:
hPBMC = assay: MTS toxicity assay in parallel to Con-A-induced IFN-γ assay; format: cell-based, human; settings: Con-A experiment
Description: (§1) Peripheral blood was collected from normal healthy volunteers after informed consent. Peripheral blood mononuclear cells (hPBMC) were harvested using Ficoll-Hypaque density gradient centrifugation (1.077 g/mL; Sigma Aldrich). hPBMCs were resuspended in RPMI 1640 culture medium (Gibco BRL, Pasley, UK) containing 10% FCS, 100 U/mL penicillin (Sigma Chemical Co. St Louis, Mo.) and […] streptomycin (Sigma Chemical Co. St Louis, Mo.) at 1×10^6 cells/mL. 1×10^5 hPBMCs/well were pre-treated with 0.025 μM of compounds of present invention or 0.5% DMSO (vehicle control) for 30 minutes at 37° C. Subsequently, these cells were stimulated with 1 μg/mL concanavalin A (Sigma Chemical Co., St. Louis, Mo.). Following 18 hours of incubation at 37° C., supernatants were collected and stored at −70° C. until assayed for human IFN-γ by ELISA as described by the manufacturer (OptiEIA ELISA sets, BD BioSciences). In every experiment, cyclosporin (1 μM) was used as a positive control for inhibiting induced IFN-γ production. In all experiments, the toxicity of test compounds was ascertained, in parallel, using the MTS (3-(4,5-dimethylthiazol-2-yl)-5-(3-carboxymethoxyphenyl)-2-(4-sulfonyl)-2H-tetrazolium) assay as described in Am. J. Physiol. Cell Physiol., 2003, 285, C813-C822.

IFN-γ [1] = assay: Con-A-induced IFN-γ production from hPBMC; format: cell-based; settings: Homo sapiens, concanavalin A 1 μg/mL, 18 hours
Description: Con-A-Induced IFN-γ Production from hPBMC
as §1

MDA MB 468 = assay: Cytotoxicity propidium iodide assay, MDA MB 468; format: cell-based; settings: Homo sapiens; MDA MB 468 (breast), 48 hours treatment; read-out: IC50 Values in μM, C3b
Summary of the method: (§2)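 Following a 48 h treatment with various compound concentrations, cells plated at 3000 per well were stained with […] propidium iodide and frozen overnight. Fluorescence after thawing gave percent viability against untreated controls, from which IC50 values were calculated.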

MCF7 = assay: Cytotoxicity propidium iodide assay, MCF7; format: cell-based; settings: Homo sapiens; MCF7 (breast), 48 hours treatment; read-out: IC50 Values in μM, C3d
Summary of the method: as §2

TNF-α = assay: Anti-CD3 mAb and anti-CD28 mAb-induced cytokine production assay, TNF-α; format: cell-based; settings: Homo sapiens, hPBMC, anti-CD3/anti-CD28, 18 hours
Description: (§3) Anti-CD3 mAb and Anti-CD28 mAb-Induced Cytokine Production Assay
(§4) Preparation of anti-CD3/anti-CD28 coated plates: 96 well plates were coated with goat anti-mouse IgG, Fc (Millipore) at a concentration of 16.5 μg/mL in coating buffer ([…] NaHCO3, 3.56 g Na2CO3, pH 9.5). Following overnight incubation at 4° C., the plates were washed and then incubated with anti-CD3 (3.5 μg/mL; R&D Systems) and anti-CD28 (35 ng/mL; R&D Systems) cocktail for 3 hours. Subsequently, the plates were washed, and used for hPBMC stimulation.
(§5) hPBMC stimulation: Peripheral blood was collected from normal healthy volunteers after informed consent. Peripheral blood mononuclear cells (hPBMC) were harvested using Ficoll-Hypaque density gradient centrifugation (1.077 g/mL; Sigma Aldrich). hPBMCs were resuspended in RPMI 1640 culture medium (Gibco BRL, Pasley, UK) containing 10% FCS, 100 U/mL penicillin (Sigma Chemical Co. St Louis, Mo.) and […] streptomycin (Sigma Chemical Co. St Louis, Mo.) at 1.25×10^6 cells/mL of assay medium. 2.5×10^5 hPBMCs were added per well of 96-well plate coated with or without anti-CD3/anti-CD28 mAbs. Simultaneously, 0.025 μM of compounds of the present invention or 0.5% DMSO (vehicle control) were added to appropriate wells. The cells were then incubated for 18 hours at 37° C., 5% CO2 following which supernatants were collected, stored at […] and assayed later for TNF-α, IL-6 and IFN-γ by ELISA (OptiEIA ELISA sets; BD Biosciences). In every experiment, each condition was run in triplicate wells. In all experiments, the toxicity of test compounds was ascertained, in parallel, using the MTS (3-(4,5-dimethylthiazol-2-yl)-5-(3-carboxymethoxyphenyl)-2-(4-sulfonyl)-2H-tetrazolium) assay as described in Am. J. Physiol. Cell Physiol., 2003, 285, C813-C822.

PANC 1 = assay: Cytotoxicity propidium iodide assay, PANC 1; format: cell-based; settings: Homo sapiens; PANC 1 (pancreatic), 48 hours treatment; read-out: IC50 Values in μM, C4a
Description: (§6) The assay was designed as in the reference, Anticancer Drugs, 2002, 13, 1-8, the disclosure of which is incorporated herein by reference for the teaching of the assay.
(§7) Cells from cell lines (ATCC) as mentioned in the table given below were seeded at a density of 3000 cells/well in a white opaque 96-well plate. Following incubation at 37° C./5% CO2 for a period of 18-24 hours, the cells were treated with various concentrations (stock solution was prepared in DMSO and subsequent dilutions were made in media as per ATCC guidelines) of the compounds of the present invention for a period of 48 hours. At the end of treatment, the culture medium was discarded, the cells were washed with 1×PBS and 200 μL of […] propidium iodide was added to each well. The plates were frozen at […] overnight. For analysis, the plates were warmed to RT, allowed to thaw and were read in PoleStar fluorimeter with the fluorescence setting. The percentage of viable cells in the non-treated set of wells was considered to be 100 and the percentage viability following treatment was calculated accordingly. IC50 values were calculated from graphs plotted using these percentages. IC50 values for certain compounds of present invention are depicted in Table 1 and % Inhibition of certain compounds of present invention are depicted in Table 2.

IFN-γ [2] = assay: Anti-CD3 mAb and anti-CD28 mAb-induced cytokine production assay, IFN-γ; format: cell-based; settings: Homo sapiens, hPBMC, anti-CD3/anti-CD28, 18 hours
Description: as §3, §4, §5

A2780 = assay: Cytotoxicity propidium iodide assay, A2780; format: cell-based; settings: Homo sapiens; A2780 (ovarian), 48 hours treatment; read-out: IC50 Values in μM, C1a
Summary of the method: as §2

T315I = assay: Cytotoxicity propidium iodide assay, T315I; format: cell-based; settings: T315I (CML), 48 hours treatment; read-out: IC50 Values in μM, C6b
Description: as §6, §7

KCL22/SR = assay: Cytotoxicity propidium iodide assay, KCL22/SR; format: cell-based; settings: Homo sapiens, KCL-22; KCL22/SR (CML), 48 hours treatment; read-out: IC50 Values in μM, C6e
Summary of the method: as §2

K562 = assay: Cytotoxicity propidium iodide assay, K562; format: cell-based; settings: Homo sapiens; K562 (CML), 48 hours treatment; read-out: IC50 Values in μM, C6a
Summary of the method: as §2

KU812/SR = assay: Cytotoxicity propidium iodide assay, KU812/SR; format: cell-based; settings: Homo sapiens; KU812/SR (CML), 48 hours treatment; read-out: IC50 Values in μM, C6c
Summary of the method: as §2

| Structure (SMILES) | % Toxicity at 0.025 μM (hPBMC) [%] | inhibition at 0.025 µM (IFN-γ [1]) [%] | IC50 (MDA MB 468) [µM] | IC50 (MCF7) [µM] | inhibition at 0.025 µM (TNF-α) [%] | IC50 (PANC 1) [µM] | inhibition at 0.025 µM (IFN-γ [2]) [%] | IC50 (A2780) [µM] | IC50 (T315I) [µM] | IC50 (KCL22/SR) [µM] | IC50 (K562) [µM] | IC50 (KU812/SR) [µM] |
| --- | --- | --- | --- | --- | --- | --- | --- | --- | --- | --- | --- | --- |
| Cn1c(=O)n(-c2ccc(C(C)(C)C#N)nc2)c2c3cc(-c4cnc5ccccc5c4)ccc3ncc21 [Example 2, 2-Methyl-2-(5-(3-methyl-2-oxo-8-(quinolin-3-yl)-2,3-dihydro-1H-imidazo[4,5-c]quinolin-1-yl)pyridin-2-yl)propanenitrile] | 12 | 58 | 0.3 | 0.09 | 63 | 0.1 | 71 | 0.024 |  |  |  |  |
| Cn1c(=O)n(-c2ccc(C(C)(C)C#N)nc2)c2c3cc(-c4cnc(N)c(C(F)(F)F)c4)ccc3ncc21 [Example 3, 2-(5-(8-(6-Amino-5-(trifluoromethyl)pyridin-3-yl)-3-methyl-2-oxo-2,3-dihydro-1H-imidazo[4,5-c]quinolin-1-yl)pyridin-2-yl)-2-methylpropanenitrile] | 21 | 98 | 0.06 | 0.026 | 92 | 0.01 | 93 | < 0.005 | 0.32 | 0.06 | 0.056 | 0.19 |
| CC(C)(C#N)c1ccc(-n2c(=O)n(CC#N)c3cnc4ccc(-c5cnc(N)c(C(F)(F)F)c5)cc4c32)cn1 [Example 16, 2-(5-(8-(6-Amino-5-(trifluoromethyl)pyridin-3-yl)-3-(cyanomethyl)-2-oxo-2,3-dihydro-1H-imidazo[4,5-c]quinolin-1-yl)pyridin-2-yl)-2-methylpropanenitrile] | 3 | 31 | 0.013 | 0.03 | 81 | 0.017 | 80 | 0.013 | 2.13 | 0.23 | 0.4 | 0.19 |
| COc1ccc(-n2c(=O)n(C)c3cnc4ccc(-c5cnc(N)c(C(F)(F)F)c5)cc4c32)cn1 [Example 19, 8-(6-Amino-5-(trifluoromethyl)pyridin-3-yl)-1-(6-methoxypyridin-3-yl)-3-methyl-1H-imidazo[4,5-c]quinolin-2(3H)-one] | 18 | 93 | 0.18 | 0.054 | 87 | 0.026 | 87 | < 0.01 | 0.049 | 0.06 | 0.056 | 0.06 |
